Assay results published in ChEMBL document CHEMBL5625160, “Development of a next-generation endogenous OCT4 inducer and its anti-aging effect in vivo” (Eur J Med Chem, 2023).
Blank lines part the entries; values can stand above or below the compound they belong to. Active and inactive are the calls of the source. The calls are words filed in the database; no cut-off is given here.

How the values were obtained:
[1] = Cytotoxicity against human HFF cells assessed as inhibition of cell viability measured after 48 hrs by MTT assay; assay type: toxicity, cell-based
[2] = test system: NCCIT; test: Cytotoxicity against human NCCIT cells assessed as inhibition of cell viability measured after 48 hrs by MTT assay; assay type: functional, cell-based
[3] = target: Homeobox protein NANOG (Homo sapiens) (UniProt Q9H9S0); test: Induction of NANOG (unknown origin) expressed in human NCCIT reporter cells assessed as increase in luminescence signal measured after 24 hrs by luciferase reporter assay; assay type: cell-based
[4] = target: POU domain, class 5, transcription factor 1 (Homo sapiens) (UniProt Q01860); test: Induction of OCT4 (unknown origin) expressed in HEK cells assessed as increase in luminescence signal measured after 24 hrs by luciferase reporter assay; assay type: cell-based
[5] = target: POU domain, class 5, transcription factor 1 (Homo sapiens) (UniProt Q01860); test: Induction of OCT4 (unknown origin) expressed in human NCCIT reporter cells assessed as increase in luminescence signal measured after 24 hrs by luciferase reporter assay; assay type: cell-based
[6] = test system: Fibroblast; test: Reprogramming activity in human Fibroblast cells harbouring LTR7-GFP assessed as induction of iPSCs from somatic cells by measuring TRA-160 positive colonies at 5 uM measured after 7 days in presence of SOX2/KLF4/L-MYC/LIN28 (SKML); assay type: functional, cell-based; details: time 7.0 day
[7] = test system: Fibroblast; test: Upregulation of OCT4 level in human Fibroblast cells measured after 5 days by immunoblot analysis; assay type: functional, cell-based; details: dose 5-50 µM, time 5.0 day
[8] = target: Splicing factor 3B subunit 1 (Homo sapiens) (UniProt O75533); test: Thermal stabilization of SF3B1 (unknown origin) assessed as increase in denaturation temperature by thermal shift assay (reference value: 58.5+/-2.05 degreeC)
[9] = test system: Drosophila; test: Anti-aging activity in Drosophila assessed as increase in life span at late adulthood at 20 uM measured upto 60 days; assay type: functional, organism-based; details: time <= 60.0 day
[10] = test system: HFF; test: Effect on NANOG expression in human HFF cells; assay type: functional, cell-based
[11] = test system: NCCIT; test: Upregulation of E-cadherin expression in human NCCIT cells at 5 to 10 uM measured after 2 days by qRT-PCR analysis; assay type: functional, cell-based; details: dose 5-10 µM, time 2.0 day
[12] = test system: Caenorhabditis elegans; test: Anti-aging activity in Caenorhabditis elegans […] assessed as induction of daf-16 nuclear translocation measured after 24 hrs; assay type: functional, organism-based
[13] = test system: Caenorhabditis elegans; test: Anti-aging activity in wild type Caenorhabditis elegans N2 assessed as increase in life extension at 0.5 uM measured upto 40 days; assay type: functional, organism-based; details: time <= 40.0 day
[14] = test system: NCCIT; test: Upregulation of REX1 expression in human NCCIT cells at 5 to 10 uM measured after 2 days by qRT-PCR analysis; assay type: functional, cell-based; details: dose 5-10 µM, time 2.0 day
[15] = test system: Fibroblast; test: Reduction in OCT4 expression in SF3B1 siRNA human Fibroblast cells harbouring LTR7-EGFP; assay type: functional, cell-based
[16] = Upregulation of NANOG expression in human NCCIT cells assessed as fold increase at 5 to 10 uM measured after 2 days by qRT-PCR analysis; assay type: functional; details: dose 5-10 µM; time 2 day
[17] = test system: Drosophila; test: Anti-aging activity in Drosophila assessed as increase in life span at 20 uM measured upto 60 days relative to control; assay type: functional; details: 1440 h, time <= 60 day
[18] = test system: NCCIT; test: Upregulation of E-cadherin level in human NCCIT cells by fluorescence-activated cell sorter analysis; assay type: functional, cell-based
[19] = Upregulation of OCT4 expression in human NCCIT cells assessed as fold increase at 5 to 10 uM measured after 2 days by qRT-PCR analysis; assay type: functional; details: dose 5-10 µM; time 2 day
[20] = test system: Drosophila; test: Anti-aging activity in Drosophila assessed as increase in life span at early adulthood at 20 uM measured upto 60 days relative to control; assay type: functional; details: 1440 h, time <= 60 day
[21] = test system: NCCIT; test: Upregulation of STAT3 expression in human NCCIT cells at 5 to 10 uM measured after 2 days by qRT-PCR analysis; assay type: functional, cell-based; details: dose 5-10 µM, time 2.0 day
[22] = test system: HFF; test: Effect on OCT expression in human HFF cells; assay type: functional, cell-based
[23] = target: POU domain, class 5, transcription factor 1 (Homo sapiens) (UniProt Q01860); test: Induction of OCT4 in human HFF cells measured after 8 hrs; assay type: cell-based; details: filed as activator
[24] = test system: NCCIT; test: Upregulation of SOX2 level in human NCCIT cells by fluorescence-activated cell sorter analysis; assay type: functional, cell-based
[25] = test system: HFF; test: Effect on SOX2 expression in human HFF cells; assay type: functional, cell-based
[26] = test system: NCCIT; test: Upregulation of OCT4 level in human NCCIT cells measured after 5 days by immunoblot analysis; assay type: functional, cell-based; details: dose 1-50 µM, time 5.0 day
[27] = test system: NCCIT; test: Upregulation of NANOG level in human NCCIT cells by fluorescence-activated cell sorter analysis; assay type: functional, cell-based
[28] = test system: NCCIT; test: Upregulation of SOX2 expression in human NCCIT cells at 5 to 10 uM measured after 2 days by qRT-PCR analysis; assay type: functional, cell-based; details: dose 5-10 µM, time 2.0 day
[29] = test system: NCCIT; test: Upregulation of OCT4 level in human NCCIT cells by fluorescence-activated cell sorter analysis; assay type: functional, cell-based
[30] = test system: Caenorhabditis elegans; test: Anti-aging activity in wild type Caenorhabditis elegans N2 assessed as increase in survival rate measured after 48 hrs under oxidative stress; assay type: functional, organism-based
[31] = test system: Drosophila; test: Anti-aging activity in Drosophila assessed as extension of life span; assay type: functional, organism-based
[32] = test system: Drosophila; test: Anti-aging activity in Drosophila; assay type: functional, organism-based
[33] = target: Albumin (Homo sapiens, UniProt P02768); test: Protein binding in serum albumin (unknown origin); assay type: ADME; details: read-out: PB (converted)
[34] = Membrane permeability of the compound; assay type: ADME

POU domain, class 5, transcription factor 1 (Homo sapiens), sequence (Q01860 whole entry, the tested form may be a part): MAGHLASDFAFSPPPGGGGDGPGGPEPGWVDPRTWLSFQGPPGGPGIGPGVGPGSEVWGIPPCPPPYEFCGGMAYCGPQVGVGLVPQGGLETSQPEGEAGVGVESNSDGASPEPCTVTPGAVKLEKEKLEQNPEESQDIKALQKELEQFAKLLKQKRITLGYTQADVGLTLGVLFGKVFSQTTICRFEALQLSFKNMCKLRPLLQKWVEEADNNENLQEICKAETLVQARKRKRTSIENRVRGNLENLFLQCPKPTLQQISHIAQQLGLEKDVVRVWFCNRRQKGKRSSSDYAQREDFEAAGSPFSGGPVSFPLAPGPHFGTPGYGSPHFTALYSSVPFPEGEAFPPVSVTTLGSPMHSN
Homeobox protein NANOG (Homo sapiens), sequence (Q9H9S0 whole entry, the tested form may be a part): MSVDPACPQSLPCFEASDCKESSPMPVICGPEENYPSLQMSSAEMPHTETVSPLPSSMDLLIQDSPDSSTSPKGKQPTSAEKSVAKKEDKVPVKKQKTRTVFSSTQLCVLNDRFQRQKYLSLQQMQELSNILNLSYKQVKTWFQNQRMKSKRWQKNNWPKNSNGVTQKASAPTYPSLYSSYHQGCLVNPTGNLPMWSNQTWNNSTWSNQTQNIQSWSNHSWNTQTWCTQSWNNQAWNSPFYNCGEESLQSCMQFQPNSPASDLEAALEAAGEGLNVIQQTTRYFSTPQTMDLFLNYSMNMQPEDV
Splicing factor 3B subunit 1 (Homo sapiens), sequence (O75533 whole entry): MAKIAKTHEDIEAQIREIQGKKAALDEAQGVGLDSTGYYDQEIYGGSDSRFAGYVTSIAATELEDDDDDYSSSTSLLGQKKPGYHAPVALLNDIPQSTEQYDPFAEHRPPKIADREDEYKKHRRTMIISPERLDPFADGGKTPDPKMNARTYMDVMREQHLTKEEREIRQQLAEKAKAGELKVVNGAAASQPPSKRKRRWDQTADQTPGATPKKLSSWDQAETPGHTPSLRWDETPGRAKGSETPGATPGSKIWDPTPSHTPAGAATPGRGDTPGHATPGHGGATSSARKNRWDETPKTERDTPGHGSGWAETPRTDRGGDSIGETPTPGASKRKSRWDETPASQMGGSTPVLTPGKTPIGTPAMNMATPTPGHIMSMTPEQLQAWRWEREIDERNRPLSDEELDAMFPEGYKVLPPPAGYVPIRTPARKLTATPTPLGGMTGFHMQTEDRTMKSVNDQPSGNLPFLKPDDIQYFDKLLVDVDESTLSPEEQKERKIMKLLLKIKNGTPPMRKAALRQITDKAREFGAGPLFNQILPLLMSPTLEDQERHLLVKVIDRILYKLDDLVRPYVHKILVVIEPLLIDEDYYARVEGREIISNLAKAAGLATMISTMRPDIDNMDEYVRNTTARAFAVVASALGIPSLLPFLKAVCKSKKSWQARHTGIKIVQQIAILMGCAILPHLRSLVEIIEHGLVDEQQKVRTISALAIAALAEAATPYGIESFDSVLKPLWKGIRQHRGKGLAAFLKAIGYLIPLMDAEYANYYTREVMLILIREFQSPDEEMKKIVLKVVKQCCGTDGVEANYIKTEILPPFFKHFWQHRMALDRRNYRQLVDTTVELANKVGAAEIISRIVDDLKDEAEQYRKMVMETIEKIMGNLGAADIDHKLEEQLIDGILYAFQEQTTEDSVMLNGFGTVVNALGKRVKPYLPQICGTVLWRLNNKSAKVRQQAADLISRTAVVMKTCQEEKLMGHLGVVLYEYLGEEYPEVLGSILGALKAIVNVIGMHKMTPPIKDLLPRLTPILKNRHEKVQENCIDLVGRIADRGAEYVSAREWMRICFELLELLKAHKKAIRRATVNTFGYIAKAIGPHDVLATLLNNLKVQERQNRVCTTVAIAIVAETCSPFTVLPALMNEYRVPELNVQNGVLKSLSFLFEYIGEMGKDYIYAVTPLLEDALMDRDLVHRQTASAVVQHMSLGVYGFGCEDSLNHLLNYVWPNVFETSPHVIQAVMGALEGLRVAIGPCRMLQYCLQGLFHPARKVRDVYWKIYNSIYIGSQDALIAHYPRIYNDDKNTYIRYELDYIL
Albumin, sequence (P02768 whole entry): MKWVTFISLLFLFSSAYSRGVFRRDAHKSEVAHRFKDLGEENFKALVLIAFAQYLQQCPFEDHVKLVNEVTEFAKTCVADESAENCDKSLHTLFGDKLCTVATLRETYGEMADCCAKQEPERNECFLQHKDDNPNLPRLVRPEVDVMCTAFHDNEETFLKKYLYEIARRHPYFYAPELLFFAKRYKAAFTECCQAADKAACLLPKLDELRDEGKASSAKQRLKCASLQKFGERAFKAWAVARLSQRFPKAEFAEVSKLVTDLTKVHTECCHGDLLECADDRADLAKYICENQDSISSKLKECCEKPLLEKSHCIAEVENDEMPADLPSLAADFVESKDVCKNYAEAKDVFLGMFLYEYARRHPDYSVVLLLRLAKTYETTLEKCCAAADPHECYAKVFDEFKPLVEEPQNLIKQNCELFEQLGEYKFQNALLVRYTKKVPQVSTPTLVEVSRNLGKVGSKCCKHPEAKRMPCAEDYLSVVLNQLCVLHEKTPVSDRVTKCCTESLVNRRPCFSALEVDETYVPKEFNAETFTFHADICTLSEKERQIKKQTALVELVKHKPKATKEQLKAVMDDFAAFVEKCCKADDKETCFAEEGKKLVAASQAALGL

SMILES: Cc1ccc(Nc2nc(C(C)(C)C)cs2)c(C)c1
IC50 at 48 h [1]: > 20 µM
IC50 [2]: > 20 µM

Activity [3]: inactive
Activity ([4]; filed as activator): Active
Activity [5]: inactive
SMILES: CCOC(=O)c1csc(Nc2ccc([N+](=O)[O-])cc2)n1
IC50 at 48 h [1]: > 20 µM
IC50 [2]: > 20 µM

Activity [3]: inactive
Activity ([4]; filed as activator): Active
Activity [5]: inactive
SMILES: CCOC(=O)c1csc(Nc2ccc(C)cc2Br)n1
IC50 at 48 h [1]: > 20 µM
IC50 [2]: > 20 µM
Activity [6]: Active

SMILES: Cc1cccc(Nc2nc(C(C)(C)C)cs2)c1
IC50 at 48 h [1]: 11.6 µM
IC50 [2]: 5.96 µM

SMILES: Cc1ccccc1Nc1nc(C(C)(C)C)cs1
IC50 at 48 h [1]: > 20 µM
IC50 [2]: 9.38 µM

Activity [3]: inactive
Activity [4]: inactive
Activity [5]: inactive
SMILES: CCOC(=O)c1csc(Nc2ccc(OC)cc2)n1
IC50 at 48 h [1]: > 20 µM
IC50 [2]: > 20 µM

SMILES: CC(C)(C)c1csc(Nc2ccc(Cl)cc2)n1
IC50 at 48 h [1]: > 20 µM
IC50 [2]: 19.7 µM
Activity [6]: inactive

Activity [3]: inactive
Activity ([4]; filed as activator): Active
Activity [5]: inactive
SMILES: CCOC(=O)c1csc(Nc2cc(F)ccc2F)n1
IC50 at 48 h [1]: > 20 µM
IC50 [2]: > 20 µM

SMILES: Cc1ccc(-c2cn3cc(C)ccc3n2)cc1
Activity [6]: Active

SMILES: CC(C)(C)c1csc(Nc2ccccc2)n1
IC50 at 48 h [1]: > 20 µM
IC50 [2]: > 20 µM

Activity [3]: inactive
Activity ([4]; filed as activator): Active
Activity [5]: inactive
SMILES: CCOC(=O)c1csc(Nc2ccc(Br)cc2C)n1
IC50 at 48 h [1]: > 20 µM
IC50 [2]: > 20 µM

Activity [3]: inactive
Activity [4]: inactive
Activity [5]: inactive
SMILES: CCOC(=O)c1csc(Nc2ccc(C#N)cc2)n1
IC50 at 48 h [1]: > 20 µM
IC50 [2]: > 20 µM

Activity [3]: inactive
Activity [4]: inactive
Activity [5]: inactive
SMILES: CCOC(=O)c1csc(Nc2ccc(C)cc2)n1
IC50 at 48 h [1]: > 20 µM
IC50 [2]: > 20 µM

SMILES: Clc1ccc(Nc2nc(-c3ccc4ccccc4c3)cs2)cc1
IC50 at 48 h [1]: > 20 µM
IC50 [2]: > 20 µM

Activity [3]: inactive
Activity [4]: inactive
Activity [5]: inactive
SMILES: CCOC(=O)c1csc(Nc2cc(OC)ccc2OC)n1
IC50 at 48 h [1]: > 20 µM
IC50 [2]: > 20 µM

Activity [3]: inactive
Activity [4]: inactive
Activity [5]: inactive
SMILES: CCOC(=O)c1csc(Nc2ccc(O)cc2)n1
IC50 at 48 h [1]: > 20 µM
IC50 [2]: > 20 µM

Activity ([3]; filed as activator): Active
Activity ([4]; filed as activator): Active
Activity ([5]; filed as activator): Active
SMILES: CCOC(=O)c1csc(Nc2ccc(C(=O)O)cc2)n1
IC50 at 48 h [1]: > 20 µM
IC50 [2]: > 20 µM
Activity [6]: Active

SMILES: Cc1cccc(Nc2nc(C(C)(C)C)cs2)c1C
Activity [7]: Dose-Dependent Effect
T [8]: 64.9 °C
ILS [9]: inactive
Activity [10]: Active
Activity [11]: Active
Activity ([3]; filed as activator): Active
Activity [12]: Active
Activity [13]: Active
IC50 at 48 h [1]: > 20 µM
Activity [14]: Active
Activity [15]: Active
fold change (FC) [16]: 30
ILS at 20 µM [17]: 5%
Activity [18]: Active
fold change (FC) [19]: 3
ILS at 20 µM [20]: 10%
Activity ([4]; filed as activator): Active
Activity [21]: Active
Activity [22]: Active
IC50 [2]: 10.9 µM
Activity [23]: Active
Activity [24]: Active
Activity [25]: Active
Activity [26]: Dose-Dependent Effect
Activity [27]: Active
Activity [28]: Active
Activity [6]: Active
Activity [29]: Active
Activity ([5]; filed as activator): Active
Activity [30]: Active

Activity [3]: inactive
Activity [4]: inactive
Activity [5]: inactive
SMILES: CCOC(=O)c1csc(Nc2ccc(Cl)cc2OC)n1
IC50 at 48 h [1]: > 20 µM
IC50 [2]: > 20 µM

SMILES: C=C[C@@]1(C)CC(=O)[C@]2(O)[C@@]3(C)[C@@H](O)CCC(C)(C)[C@@H]3[C@H](O)[C@H](OC(C)=O)[C@@]2(C)O1
Activity [31]: inactive

Activity [3]: inactive
Activity [4]: inactive
Activity [5]: inactive
SMILES: CCOC(=O)c1csc(Nc2ccc(OC)cc2OC)n1
IC50 at 48 h [1]: > 20 µM
IC50 [2]: > 20 µM

Activity [3]: inactive
Activity [4]: inactive
Activity [5]: inactive
SMILES: CCOC(=O)c1csc(Nc2cc(C(F)(F)F)cc(C(F)(F)F)c2)n1
IC50 at 48 h [1]: > 20 µM
IC50 [2]: > 20 µM

SMILES: Clc1ccc(Nc2nc(-c3ccccc3)cs2)cc1
IC50 at 48 h [1]: > 20 µM
IC50 [2]: > 20 µM

Activity [3]: inactive
Activity ([4]; filed as activator): Active
Activity [5]: inactive
SMILES: CCOC(=O)c1csc(Nc2ccc(F)cc2F)n1
IC50 at 48 h [1]: > 20 µM
IC50 [2]: > 20 µM

fraction unbound [33]: 0.1
T [8]: 64.7 °C
permeability [34]: 70%
Activity [3]: inactive
Activity [4]: inactive
Activity [5]: inactive
SMILES: CCOC(=O)c1csc(Nc2ccc(Cl)cc2)n1
Activity [32]: inactive
Activity [6]: Active

SMILES: Cc1ccc(Nc2nc(C(C)(C)C)cs2)cc1
IC50 at 48 h [1]: > 20 µM
IC50 [2]: > 20 µM
